{"source": "patent US7012060B1", "about": "“TNF receptor and steroid hormone in a combined therapy” (priority 1995, dated 2006)", "origin": "cited, not measured here", "key": {"[1]": {"tested_on": "systemic lupus erythematosus", "details": "mouse model; cited from earlier work"}, "coxsackievirus B4": {"tested_on": "coxsackievirus B4", "details": "cited from earlier work"}, "herpes virus type 2": {"tested_on": "herpes virus type 2", "details": "cited from earlier work"}, "West Nile virus": {"tested_on": "West Nile virus", "details": "cited from earlier work"}, "Semliki Forest virus": {"tested_on": "Semliki Forest virus", "details": "cited from earlier work"}, "[2]": {"tested_on": "septic shock induced by lipopolysaccharides (LPS) alone", "details": "mice; cited from earlier work"}, "[3]": {"tested_on": "septic shock induced by Tumor Necrosis Factor alpha (TNF-α) in combination with D-Galactosamine", "details": "mice; cited from earlier work"}, "TNF-α": {"tested_on": "TNF-α", "details": "both in vivo and in vitro; cited from earlier work"}}, "data": [{"smiles": "C[C@]12CC[C@H](O)CC1=CC[C@@H]1[C@@H]2CC[C@]2(C)C(=O)CC[C@@H]12", "note": "[DHEA, Dehydroepiandrosterone]", "values": [{"measurement": "development of systemic lupus erythematosus", "setting": "[1]", "value": "prevent the development"}, {"measurement": "systemic resistance against lethal viral infections", "setting": "coxsackievirus B4", "value": "regulates the systemic resistance"}, {"measurement": "systemic resistance against lethal viral infections", "setting": "herpes virus type 2", "value": "regulates the systemic resistance"}, {"measurement": "systemic resistance against lethal viral infections", "setting": "West Nile virus", "value": "regulates the systemic resistance"}, {"measurement": "systemic resistance against lethal viral infections", "setting": "Semliki Forest virus", "value": "regulates the systemic resistance"}, {"measurement": "protection from septic shock", "setting": "[2]", "value": "protecting mice from septic shock"}, {"measurement": "protection from septic shock", "setting": "[3]", "value": "protecting mice from septic shock"}, {"measurement": "TNF-α levels after LPS administration", "setting": "TNF-α", "value": "significantly blocked"}]}]}
